Data taken from paper PMC4450297, “Screening Active Compounds from Garcinia Species Native to China Reveals Novel Compounds Targeting the STAT/JAK Signaling Pathway” (BioMed Research International, 2015).
Where two headings read alike, the source gives them in different places.

Assays:
Experiment in all cases: Cell panel screen (CellTiter-Glo)
Format in all cases: cell-based, human
HPAF-II = details: Homo sapiens, read-out: Percent Inhibition
In short: (§1)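 72 h compound exposure at 20 μM final; ATP luminescence endpoint; % inhibition vs DMSO control.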

TCCSUP = details: Homo sapiens, TCC-SUP, read-out: Percent Inhibition
In short: as §1

A498 = details: Homo sapiens, read-out: Percent Inhibition
In short: as §1

MSTO-211-H = details: Homo sapiens, read-out: Percent Inhibition
In short: as §1

M059J = details: Homo sapiens, read-out: Percent Inhibition
In short: as §1

T98G = details: Homo sapiens, read-out: Percent Inhibition
In short: as §1

HCC1599 = details: Homo sapiens, read-out: Percent Inhibition
In short: as §1

BT-474 = details: Homo sapiens, read-out: Percent Inhibition
In short: as §1

HCC1937 = details: Homo sapiens, read-out: Percent Inhibition
In short: as §1

HCC1395 = details: Homo sapiens, read-out: Percent Inhibition
In short: as §1

HGC-27 = details: Homo sapiens, read-out: Percent Inhibition
In short: as §1

C8166 = details: Homo sapiens, read-out: Percent Inhibition
In short: as §1

C3A = details: Homo sapiens, read-out: Percent Inhibition
In short: as §1

ChaGo-K-1 = details: Homo sapiens, read-out: Percent Inhibition
In short: as §1

BT-549 = details: Homo sapiens, read-out: Percent Inhibition
In short: as §1

NCI-H1770 = details: Homo sapiens, read-out: Percent Inhibition
In short: as §1

RL95 = details: Homo sapiens, read-out: Percent Inhibition
In short: as §1

T47D = details: Homo sapiens, read-out: Percent Inhibition
In short: as §1

NCI-H524 = details: Homo sapiens, read-out: Percent Inhibition
In short: as §1

NCI-H2347 = details: Homo sapiens, read-out: Percent Inhibition
In short: as §1

Panc 03.27 = details: Homo sapiens, read-out: Percent Inhibition
In short: as §1

NCI-H1694 = details: Homo sapiens, read-out: Percent Inhibition
In short: as §1

CCF-STTG1 = details: Homo sapiens, read-out: Percent Inhibition
In short: as §1

SW13 = details: Homo sapiens, read-out: Percent Inhibition
In short: as §1

A704 = details: Homo sapiens, read-out: Percent Inhibition
In short: as §1

NCI-H28 = details: Homo sapiens, read-out: Percent Inhibition
In short: as §1

J82 = details: Homo sapiens, read-out: Percent Inhibition
In short: as §1

HEC-1-A = details: Homo sapiens, read-out: Percent Inhibition
In short: as §1

[1] = HPAF-II (Pancreas), 20 micromolar, 72 hrs
[2] = TCCSUP (Urinary bladder), 20 micromolar, 72 hrs
[3] = A498 (listed under Lung), 20 micromolar, 72 hrs
[4] = MSTO-211-H (Lung), 20 micromolar, 72 hrs
[5] = M059J (Brain), 20 micromolar, 72 hrs
[6] = T98G (Brain), 20 micromolar, 72 hrs
[7] = HCC1599 (Breast), 20 micromolar, 72 hrs
[8] = BT-474 (Breast), 20 micromolar, 72 hrs
[9] = HCC1937 (Breast), 20 micromolar, 72 hrs
[10] = HCC1395 (Breast), 20 micromolar, 72 hrs
[11] = HGC-27 (Stomach), 20 micromolar, 72 hrs
[12] = C8166 (Leukemia), 20 micromolar, 72 hrs
[13] = C3A (Liver), 20 micromolar, 72 hrs
[14] = ChaGo-K-1 (Lung), 20 micromolar, 72 hrs
[15] = BT-549 (Breast), 20 micromolar, 72 hrs
[16] = NCI-H1770 (Lung), 20 micromolar, 72 hrs
[17] = RL95 (Uterus), 20 micromolar, 72 hrs
[18] = T47D (Breast), 20 micromolar, 72 hrs
[19] = NCI-H524 (Lung), 20 micromolar, 72 hrs
[20] = NCI-H2347 (Lung), 20 micromolar, 72 hrs
[21] = PANC-03-27, Panc 03.27 (Pancreas), 20 micromolar, 72 hrs
[22] = NCI-H1694 (Lung), 20 micromolar, 72 hrs
[23] = CCF-STTG1 (Brain), 20 micromolar, 72 hrs
[24] = SW13 (Adrenal gland), 20 micromolar, 72 hrs
[25] = A704 (Kidney), 20 micromolar, 72 hrs
[26] = NCI-H28 (Lung), 20 micromolar, 72 hrs
[27] = J82 (Urinary bladder), 20 micromolar, 72 hrs
[28] = HEC-1-A (Uterus), 20 micromolar, 72 hrs

For `CC(C)=CCC[C@@]1(C)C=Cc2c(O)c3c(c(C/C=C(\C)CO)c2O1)O[C@]12C(=C[C@@H]4C[C@H]1C(C)(C)O[C@@]2(C/C=C(/C)C(=O)O)C4=O)C3=O` [GB40, 35-hydroxyepigambogic acid], the inhibition at 20 µM (HPAF-II; [1]) was 99%, the inhibition at 20 µM (TCCSUP; [2]) was 99% and the inhibition at 20 µM (A498; [3]) was 98%. For the same compound, the inhibition at 20 µM (MSTO-211-H; [4]) was 98%, the inhibition at 20 µM (M059J; [5]) was 99% and the inhibition at 20 µM (T98G; [6]) was 99%. For the same compound, the inhibition at 20 µM (HCC1599; [7]) was 99%, the inhibition at 20 µM (BT-474; [8]) was 99% and the inhibition at 20 µM (HCC1937; [9]) was 99%. For the same compound, the inhibition at 20 µM (HCC1395; [10]) was 98%, the inhibition at 20 µM (HGC-27; [11]) was 99% and the inhibition at 20 µM (C8166; [12]) was 99%. The inhibition at 20 µM (C3A; [13]) was 98%, the inhibition at 20 µM (ChaGo-K-1; [14]) was 98% and the inhibition at 20 µM (BT-549; [15]) was 99%. It also gave an inhibition at 20 µM (NCI-H1770; [16]) of 99%, an inhibition at 20 µM (RL95; [17]) of 99% and an inhibition at 20 µM (T47D; [18]) of 99%. The inhibition at 20 µM (NCI-H524; [19]) was 99%, the inhibition at 20 µM (NCI-H2347; [20]) was 98% and the inhibition at 20 µM (Panc 03.27; [21]) was 99%. For the same compound, the inhibition at 20 µM (NCI-H1694; [22]) was 99%, the inhibition at 20 µM (CCF-STTG1; [23]) was 99% and the inhibition at 20 µM (SW13; [24]) was 98%. It also gave an inhibition at 20 µM (A704; [25]) of 98%, an inhibition at 20 µM (NCI-H28; [26]) of 98% and an inhibition at 20 µM (J82; [27]) of 99%. For the same compound, the inhibition at 20 µM (HEC-1-A; [28]) was 99%.
In the case of `CC(C)=CCC/C(C)=C/Cc1c(O)c(CC=C(C)C)c2c(c1O)C(=O)C1=C[C@@H]3C[C@H]4C(C)(C)O[C@@](CC=C(C)C)(C3=O)[C@@]14O2` [GB32], the inhibition at 20 µM (HPAF-II; HPAF-II, 72 h) is reported as 99%, the inhibition at 20 µM (TCCSUP; 72 h) is reported as 99% and the inhibition at 20 µM (A498; A498, 72 h) is reported as 98%. It also gave an inhibition at 20 µM (MSTO-211-H; MSTO-211H, 72 h) of 99%, an inhibition at 20 µM (M059J; M059J, 72 h) of 99% and an inhibition at 20 µM (T98G; T98G, 72 h) of 99%. For the same compound, the inhibition at 20 µM (HCC1599; HCC1599, 72 h) was 100%, the inhibition at 20 µM (BT-474; BT-474, 72 h) was 99% and the inhibition at 20 µM (HCC1937; HCC1937, 72 h) was 99%. The inhibition at 20 µM (HCC1395; HCC1395, 72 h) was 99%, the inhibition at 20 µM (HGC-27; HGC-27, 72 h) was 99% and the inhibition at 20 µM (C8166; C8166, 72 h) was 99%. It also gave an inhibition at 20 µM (C3A; C3A, 72 h) of 99%, an inhibition at 20 µM (ChaGo-K-1; ChaGo-K-1, 72 h) of 99% and an inhibition at 20 µM (BT-549; BT-549, 72 h) of 99%. For the same compound, the inhibition at 20 µM (NCI-H1770; NCI-H1770, 72 h) was 99%, the inhibition at 20 µM (RL95; 72 h) was 99% and the inhibition at 20 µM (T47D; T47D, 72 h) was 99%. For the same compound, the inhibition at 20 µM (NCI-H524; NCI-H524, 72 h) was 99%, the inhibition at 20 µM (NCI-H2347; NCI-H2347, 72 h) was 98% and the inhibition at 20 µM (Panc 03.27; PANC-03-27, 72 h) was 99%. The inhibition at 20 µM (NCI-H1694; NCI-H1694, 72 h) was 100%, the inhibition at 20 µM (CCF-STTG1; CCF-STTG1, 72 h) was 99% and the inhibition at 20 µM (SW13; SW13, 72 h) was 99%. The inhibition at 20 µM (A704; A704, 72 h) was 99%, the inhibition at 20 µM (NCI-H28; NCI-H28, 72 h) was 99% and the inhibition at 20 µM (J82; J82, 72 h) was 99%. It also gave an inhibition at 20 µM (HEC-1-A; HEC-1-A, 72 h) of 99%.
For `CC(C)=CCC/C(C)=C/Cc1c(O)c(CC=C(C)C)c2c(c1O)C(=O)C1=C[C@@H]3C[C@H]4C(C)(C)O[C@@](C/C=C(\C)C(=O)O)(C3=O)[C@@]14O2` [GB63], the inhibition at 20 µM (HPAF-II; [1]) was 99%, the inhibition at 20 µM (TCCSUP; [2]) was 99% and the inhibition at 20 µM (A498; [3]) was 98%. It also gave an inhibition at 20 µM (MSTO-211-H; [4]) of 99%, an inhibition at 20 µM (M059J; [5]) of 99% and an inhibition at 20 µM (T98G; [6]) of 99%. It also gave an inhibition at 20 µM (HCC1599; [7]) of 99%, an inhibition at 20 µM (BT-474; [8]) of 99% and an inhibition at 20 µM (HCC1937; [9]) of 100%. For the same compound, the inhibition at 20 µM (HCC1395; [10]) was 99%, the inhibition at 20 µM (HGC-27; [11]) was 99% and the inhibition at 20 µM (C8166; [12]) was 100%. The inhibition at 20 µM (C3A; [13]) was 99%, the inhibition at 20 µM (ChaGo-K-1; [14]) was 100% and the inhibition at 20 µM (BT-549; [15]) was 99%. For the same compound, the inhibition at 20 µM (NCI-H1770; [16]) was 99%, the inhibition at 20 µM (RL95; [17]) was 99% and the inhibition at 20 µM (T47D; [18]) was 99%. The inhibition at 20 µM (NCI-H524; [19]) was 98%, the inhibition at 20 µM (NCI-H2347; [20]) was 98% and the inhibition at 20 µM (Panc 03.27; [21]) was 99%. For the same compound, the inhibition at 20 µM (NCI-H1694; [22]) was 100%, the inhibition at 20 µM (CCF-STTG1; [23]) was 99% and the inhibition at 20 µM (SW13; [24]) was 99%. It also gave an inhibition at 20 µM (A704; [25]) of 99%, an inhibition at 20 µM (NCI-H28; [26]) of 99% and an inhibition at 20 µM (J82; [27]) of 99%. It also gave an inhibition at 20 µM (HEC-1-A; [28]) of 99%.
